One assay concerns the target T1, rat steroid 17-20 lyase (Rattus norvegicus, UniProt P11715).
T1 construct: A testis was excised from a ten-week-old male Wistar rat, homogenized and then centrifuged to obtain microsomes; from tissue; host or cells: testicular microsomes of ten-week-old male Wistar rats
T1 sequence (P11715 1-507): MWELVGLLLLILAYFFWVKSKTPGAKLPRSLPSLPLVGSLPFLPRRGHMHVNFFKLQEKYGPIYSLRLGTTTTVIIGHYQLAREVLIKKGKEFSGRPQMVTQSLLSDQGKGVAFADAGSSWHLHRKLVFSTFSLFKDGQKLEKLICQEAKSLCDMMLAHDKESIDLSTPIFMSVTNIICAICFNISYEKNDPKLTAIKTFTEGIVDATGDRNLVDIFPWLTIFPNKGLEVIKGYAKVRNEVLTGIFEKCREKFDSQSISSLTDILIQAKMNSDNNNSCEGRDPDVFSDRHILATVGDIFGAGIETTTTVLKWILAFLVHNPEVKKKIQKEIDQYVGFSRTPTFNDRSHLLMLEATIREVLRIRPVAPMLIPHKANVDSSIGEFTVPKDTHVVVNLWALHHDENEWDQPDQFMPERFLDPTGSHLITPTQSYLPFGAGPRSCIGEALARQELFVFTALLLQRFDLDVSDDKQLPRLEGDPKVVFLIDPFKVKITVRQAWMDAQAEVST
Kind of assay: Measurement of rat steroid 17-20 lyase inhibiting activity (rat testicular microsomes). Format: biochemical, rat (male Wistar). Particulars: 1 μM [1,2-3H]-17α-hydroxyprogesterone, NADPH, pH 7.4, 37° C., 60 minutes, read-out: Concentration of drug to inhibit 50% of steroid 17-20 lyase activity (IC50). The procedure:
(1) Measurement of rat steroid 17-20 lyase inhibiting activity
Carried out in accordance with the procedure described in J. Steroid Biochem., Vol.33, No.6, 1191-1195 (1989).
A testis was excised from a ten-week-old male Wistar rat, homogenized and then centrifuged to obtain microsomes. A 50 μg portion of the microsomal protein, 1 μM of [1,2-^3 H]-17α-hydroxyprogesterone (5.55×10^5 dpm) and a test compound were dissolved in 100 μl of 50 mM phosphate buffer (pH 7.4), and the solution was mixed with NADPH solution and incubated at 37° C. for 60 minutes. This was mixed with 400 μl of a mixed solvent of methanol and tetrahydrofuran (2:3) and subjected to centrifugation, and radioactivities of the substrate and products (androstenedione and testosterone) in the resulting supernatant fluid were measured using a high performance liquid chromatography (HPLC) equipped with a radioactive isotope detector to examine activity of the test compound to inhibit steroid 17-20 lyase.
The steroid 17-20 lyase inhibiting activity in rat testicular microsomes was calculated as IC50 value by the method described in the above test method (1), with the results shown in Table 1.

The subject of another assay is testosterone synthesis. The experiment in a line: Measurement of in vivo rat testosterone synthesis inhibiting activity (LH-RH stimulated). The conditions noted are these: 1 mg/kg, oral, fasted male Wistar rats; LH-RH 60 ng/rat i.m. 1 h after drug, blood 1 h thereafter; serum testosterone. The procedure:
(2) Measurement of in vivo rat testosterone synthesis inhibiting activity
Carried out in accordance with the procedure described in J. Steroid Biochem., Vol.32, No.6, 781-788 (1989).
Each test drug was orally administered to ten-week-old male Wistar rats under fasting. One hour after the drug administration, LH-RH (60 ng/rat) was administered by intramuscular injection to accelerate testosterone synthesis. One hour thereafter, blood was collected by decapitation, and concentration of testosterone in the thus obtained serum was measured by a radioactive isotope assay to calculate testosterone synthesis inhibiting activity.
The in vivo activity to inhibit synthesis of testosterone in rats measured by the above test method (2) was expressed as a testosterone synthesis inhibition ratio (%) to the control group when each test compound or a control compound was administered in a dose of 1 or 10 mg/kg (Table 2).

Counter-ions that a name gives are not always drawn.

In the case of `CC(c1ccc2c(c1)sc1ccccc12)n1ccnc1` (stereo not shown) [Example 8, 1-[1-(Dibenzothiophen-3-yl)ethyl]-1H-imidazole], the IC50 on rat steroid 17-20 lyase turned out to be 5.7 nM. Also, in the assay with testosterone synthesis, the “Testosterone synthesis inhibition ratio (to the control group)” value (shortened to “Testosterone synthesis inhibition ratio”) was found to be 73.0%.
`CC(c1ccc2c(c1)Nc1ccccc1S2)n1ccnc1` (stereo not shown) [Example 10, 2-[1-(1H-Imidazo1-1-yl)ethyl]phenothiazine monooxalate]: the IC50 on rat steroid 17-20 lyase stood at 6.9 nM.
On to `CC(c1ccc2c(c1)Cc1ccccc1-2)n1ccnc1` (stereo not shown) [Example 2, 1-[1-(9H-fluoren-2-yl)ethyl]-1H-imidazole hydrochloride], for which, at rat steroid 17-20 lyase, the IC50 was determined as 4 nM. Moreover, in the assay on testosterone synthesis, the “Testosterone synthesis inhibition ratio” value is 86.3%.
With `c1ccc2c(c1)Cc1cc(Cn3ccnc3)ccc1-2` [Example 7, 1-[(9H-Fluoren-2-yl)methyl]-1H-imidazole], in the assay on testosterone synthesis, the “Testosterone synthesis inhibition ratio” value was found to be 78.4%.
As to `CC(C)(c1ccc2c(c1)Cc1ccccc1-2)n1ccnc1` [Example 4, 1-[1-(9H-fluoren-2-yl)-1-methylethyl]-1H-imidazole], the IC50 on rat steroid 17-20 lyase stood at 5 nM.

For the origin of these results see patent US5807880A, “Azole derivative and pharmaceutical composition thereof” (Yamanouchi Pharmaceutical Co., Ltd., priority 1993, dated 1998).
